Counter-ions that a name gives are not always drawn.
Columns and labels:
DPP-IV = target: T1, DPP-IV (Homo sapiens, UniProt P27487); assay: Assay for DPP-IV inhibitory activity (DPP-IV-Glo luminescence); assay type: biochemical; details: purified DPP-IV enzyme
T1 construct: purchased Calbiochem 317630
Excerpt: 2. […] 3. […] 4. […] 5. […] 7. […] 9. […] 10. […] 11. […] 12.

DPP-VIII = target: T2, DPP-VIII (Homo sapiens, UniProt Q6V1X1); assay: Assay for DPP-VIII inhibitory activity (luminescence); assay type: biochemical; details: purified DPP-VIII enzyme
T2 construct: purchased Bioscience 80080
T2 sequence (Q6V1X1 whole entry): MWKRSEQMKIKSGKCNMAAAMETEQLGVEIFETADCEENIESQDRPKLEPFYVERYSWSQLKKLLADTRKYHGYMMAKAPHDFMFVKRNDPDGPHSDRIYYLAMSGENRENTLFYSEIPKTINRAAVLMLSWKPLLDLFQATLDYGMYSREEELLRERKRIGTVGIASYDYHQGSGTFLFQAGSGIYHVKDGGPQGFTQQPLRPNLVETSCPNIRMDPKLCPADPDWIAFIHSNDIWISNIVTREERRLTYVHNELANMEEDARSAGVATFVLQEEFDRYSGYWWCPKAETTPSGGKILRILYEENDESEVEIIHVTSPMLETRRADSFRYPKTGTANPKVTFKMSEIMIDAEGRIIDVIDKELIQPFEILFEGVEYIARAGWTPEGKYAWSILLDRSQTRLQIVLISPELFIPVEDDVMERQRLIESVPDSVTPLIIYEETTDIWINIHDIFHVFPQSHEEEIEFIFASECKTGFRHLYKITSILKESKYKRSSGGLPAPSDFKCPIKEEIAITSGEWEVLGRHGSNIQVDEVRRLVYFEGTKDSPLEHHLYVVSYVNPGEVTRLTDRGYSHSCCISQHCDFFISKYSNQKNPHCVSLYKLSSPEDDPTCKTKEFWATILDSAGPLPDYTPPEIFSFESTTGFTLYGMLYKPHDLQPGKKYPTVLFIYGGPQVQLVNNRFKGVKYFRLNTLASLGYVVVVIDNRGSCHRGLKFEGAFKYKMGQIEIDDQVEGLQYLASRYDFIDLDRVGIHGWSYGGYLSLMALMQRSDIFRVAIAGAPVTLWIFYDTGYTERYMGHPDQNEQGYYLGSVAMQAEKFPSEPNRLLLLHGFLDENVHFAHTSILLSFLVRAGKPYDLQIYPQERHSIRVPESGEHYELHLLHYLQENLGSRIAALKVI

DPP-IX = target: T3, DPP-IX (Homo sapiens, UniProt Q86TI2); assay: Assay for DPP-IX inhibitory activity (luminescence); assay type: biochemical; details: purified DPP-IX enzyme
T3 construct: purchased Bioscience 80090
T3 sequence (Q86TI2 whole entry): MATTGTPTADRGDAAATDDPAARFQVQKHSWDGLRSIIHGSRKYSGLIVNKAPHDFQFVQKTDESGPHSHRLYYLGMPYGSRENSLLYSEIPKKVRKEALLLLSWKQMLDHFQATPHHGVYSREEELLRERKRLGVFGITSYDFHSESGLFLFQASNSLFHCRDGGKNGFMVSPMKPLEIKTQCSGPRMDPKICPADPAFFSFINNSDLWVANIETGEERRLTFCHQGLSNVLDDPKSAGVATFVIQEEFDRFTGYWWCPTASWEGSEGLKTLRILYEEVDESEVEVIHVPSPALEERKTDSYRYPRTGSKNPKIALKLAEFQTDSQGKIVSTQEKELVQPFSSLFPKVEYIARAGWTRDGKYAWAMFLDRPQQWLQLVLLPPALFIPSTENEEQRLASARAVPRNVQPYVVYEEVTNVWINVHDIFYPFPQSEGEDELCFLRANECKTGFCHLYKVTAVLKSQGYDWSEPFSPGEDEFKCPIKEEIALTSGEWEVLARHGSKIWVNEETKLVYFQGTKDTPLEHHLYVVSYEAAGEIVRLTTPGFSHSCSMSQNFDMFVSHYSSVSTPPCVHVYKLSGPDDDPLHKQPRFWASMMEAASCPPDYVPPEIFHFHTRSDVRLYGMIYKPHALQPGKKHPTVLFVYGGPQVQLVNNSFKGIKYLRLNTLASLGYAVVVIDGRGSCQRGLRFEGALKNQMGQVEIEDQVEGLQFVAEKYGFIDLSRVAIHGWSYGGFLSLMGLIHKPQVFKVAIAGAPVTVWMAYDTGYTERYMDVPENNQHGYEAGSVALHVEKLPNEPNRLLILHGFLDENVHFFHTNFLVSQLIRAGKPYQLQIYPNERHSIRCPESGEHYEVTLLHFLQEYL

normal ICR mice = assay: Oral glucose tolerance test in normal ICR mice (hypoglycemic effect); assay type: in vivo; details: 2.5 g/kg glucose, 30 min after glucose
Experimental: Species, strains: ICR mice […] The volume is 20 mL/kg. […] The volume is 20 mL/kg. 1. The effects of compounds on blood glucose levels in normal ICR mice Normal male ICR mice were randomly grouped according to weights, 6 mice in each group. The groups included a black control group as well as different doses of the treatment groups as follows: Test 1: Blank control: double-distilled water by gavage. Group 1: the compound of Example 1, 1 mg/kg by gavage; […] Test 2: Blank control: double-distilled water by gavage. Group 1: the compound of Example 1, 1 mg/kg by gavage; […] 2. Serum Glucose Determination: […] The blank tube was used to set the instrument to zero, the colorimetric assay was performed at OD 505 nm. Serum glucose concentration (BG, mmol/l)=ODsample tube/ODstandard tube×5.55 Data Processing and Statistical Analysis: 1. Mean±SD and Student-t test were used in statistical analysis. 2.

[1] = Observation of water solubility when preparing dosing liquid; assay type: physicochemical; details: double distilled water; visible particles at 0.5 mg/mL, dissolved at low concentration
Experimental: Preparation Method: Compounds were weighed accurately, and then dissolved in double distilled water. The suspensions of 0.5, 0.15 and 0.05 mg/mL were prepared, respectively.

KKAy mice = assay: Oral glucose tolerance test in type II diabetes KKAy mice; assay type: in vivo; details: 30 min after glucose
Experimental: Species, Strains: KKAy mice Preparation Method: […] The volume is 10 mL/kg. The Effects of the Compounds on Blood Glucose in KKay Mice Normal KKAy mice had been fasted for 6 hours, and then were randomly grouped according to the weights and fasting blood glucose, 5 mice in each group. The groups included a blank control group as well as different doses of the treatment groups as follows: Test 1: male 0704 Blank control: double-distilled water by gavage […] Test 2: female 0816 Blank control: double-distilled water by gavage […] Test 3: male 0712 Black control: double-distilled water by gavage […] Test 4: female 0907 Black control: double-distilled water by gavage […] 3. Mean±SD and Student-t test, or Anova was used in statistical analysis. 4.

[2] = Test 1, male ICR mice, high dose 10 mg/kg by gavage
[3] = Test 1, male ICR mice, low dose 1 mg/kg by gavage
[4] = Test 1, male ICR mice, middle dose 3 mg/kg by gavage
[5] = Test 2, male ICR mice, high dose 10 mg/kg by gavage
[6] = Test 2, male ICR mice, low dose 1 mg/kg by gavage
[7] = Test 2, male ICR mice, middle dose 3 mg/kg by gavage
[8] = female KKAy mice, 10 mg/kg by gavage, 2.5 g/kg glucose
[9] = male KKAy mice, 10 mg/kg by gavage, 1.5 g/kg glucose
[10] = male KKAy mice, 30 mg/kg by gavage, 1.5 g/kg glucose

T1 sequence (P27487 whole entry): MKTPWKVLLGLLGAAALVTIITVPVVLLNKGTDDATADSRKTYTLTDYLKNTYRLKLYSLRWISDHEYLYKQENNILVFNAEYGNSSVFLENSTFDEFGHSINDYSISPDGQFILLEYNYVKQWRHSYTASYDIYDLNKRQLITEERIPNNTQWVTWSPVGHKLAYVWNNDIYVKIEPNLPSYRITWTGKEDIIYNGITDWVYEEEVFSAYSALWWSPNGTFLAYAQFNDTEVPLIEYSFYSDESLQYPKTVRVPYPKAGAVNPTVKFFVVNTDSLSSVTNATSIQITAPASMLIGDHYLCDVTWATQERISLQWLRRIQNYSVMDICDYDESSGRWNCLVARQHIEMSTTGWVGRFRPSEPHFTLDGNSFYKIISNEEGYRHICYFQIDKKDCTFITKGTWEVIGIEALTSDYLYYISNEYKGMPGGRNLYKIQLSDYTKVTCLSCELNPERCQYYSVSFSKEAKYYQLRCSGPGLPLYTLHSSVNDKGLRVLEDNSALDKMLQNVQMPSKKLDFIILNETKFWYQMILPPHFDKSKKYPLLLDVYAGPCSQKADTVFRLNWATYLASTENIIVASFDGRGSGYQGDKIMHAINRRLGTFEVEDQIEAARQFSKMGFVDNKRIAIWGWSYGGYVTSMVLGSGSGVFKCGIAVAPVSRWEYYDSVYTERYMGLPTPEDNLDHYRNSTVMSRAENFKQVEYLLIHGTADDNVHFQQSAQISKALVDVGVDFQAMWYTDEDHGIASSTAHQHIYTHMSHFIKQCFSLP

Row | SMILES | IC50 (DPP-IV) [nM] | IC50 (DPP-VIII) [nM] | IC50 (DPP-IX) [nM] | percentage of blood glucose decreased vs control group at 30 minutes (normal ICR mice; [2]) [%] | percentage of blood glucose decreased vs control group at 30 minutes (normal ICR mice; [3]) [%] | percentage of blood glucose decreased vs control group at 30 minutes (normal ICR mice; [4]) [%] | percentage of blood glucose decreased vs control group at 30 minutes (normal ICR mice; [5]) [%] | percentage of blood glucose decreased vs control group at 30 minutes (normal ICR mice; [6]) [%] | percentage of blood glucose decreased vs control group at 30 minutes (normal ICR mice; [7]) [%] | water solubility (observation) [1] | percentage of blood glucose decreased vs control group at 30 minutes (KKAy mice; female KKAy mice, 3 mg/kg by gavage, 2.5 g/kg glucose) [%] | percentage of blood glucose decreased vs control group at 30 minutes (KKAy mice; [8]) [%] | percentage of blood glucose decreased vs control group at 30 minutes (KKAy mice; [9]) [%] | percentage of blood glucose decreased vs control group at 30 minutes (KKAy mice; [10]) [%]
1 | CN(C)C(=O)N1C[C@@H]2C[C@](C)(NCC(=O)N3C[C@@H](F)C[C@H]3C#N)C[C@@H]2C1 [Example 13, 5-[2-((2S,4S)-2-Cyano-4-fluoro-pyrrolidin-1-yl)-2-oxo-ethylamino]-N,N,5-tirmethyl-hexahydro-cyclopenta[c]pyrrole-2-carboxamide tartrate] | 10 | 371 | 516 |  |  |  |  |  |  |  |  |  |  | 
2 | CN(C)C(=O)N1C[C@@H]2C[C@@](C)(NCC(=O)N3C[C@@H](F)C[C@H]3C#N)C[C@@H]2C1 [Example 18, 5-[2-((2S,4S)-2-Cyano-4-fluoro-pyrrolidin-1-yl)-2-oxo-ethylamino]-5-methyl-hexahydro-cyclopenta[c]pyrrole-2-carboxylic acid dimethylamide p-toluenesulfonate] | 39 | 3320 | 380 |  |  |  |  |  |  |  |  |  |  | 
3 | CN(C)C(=O)N1C[C@H]2C[C@@H](NCC(=O)N3CCC[C@H]3C#N)C[C@H]2C1 [Example 1, cis-5-[2-((S)-2-Cyano-pyrrolidin-1-yl)-2-oxo-ethylamino]-N,N-dimethyl-hexahydro-cyclopenta[c]pyrrole-2-carboxamide hydrochloride] |  |  |  | 31.85 | 19.16 | 22.85 | 32.05 | 26.10 | 30.24 | poorly water-soluble | 40.63 | 24.68 | 16.22 | 17.15
4 | COC(=O)N1C[C@H]2C[C@@H](NCC(=O)N3CCC[C@H]3C#N)C[C@H]2C1 [Example 2, hydrochloride] |  |  |  | 26.93 | 25.54 | 25.92 | 27.75 | 24.51 | 26.96 |  |  | 21.55 | 13.79 | 12.23
